Measurements: patent US8258103B2, “Pesticidal composition” (Sumitomo Chemical Company, Limited, priority 2007, dated 2012)

How the values were obtained:
Spodoptera litura [1] = test: Test Example 1: cabbage leaf immersion test, insecticidal rate on fourth-instar larvae; format: in vivo; settings: for Found value of insecticidal rate (%): after 2 days
Experimental: (§1) The theoretical value of an insecticidal (ovicidal) rate obtained by using a mixture of 2 kinds of active ingredients was calculated by the following formula: E=X+Y−(X×Y/100), which conforms to the Colby's formula. X: Insecticidal rate (%) of the active ingredient A at M Ppm Y: Insecticidal rate (%) of the active ingredient B at N ppm E: Theoretical insecticidal rate (%) of combination use of the active ingredient A at M ppm and the active ingredient B at N ppm
(§2) When an actual insecticidal (ovicidal) rate exceeds the theoretical value, it is determined that the used two active ingredients produce a synergetic effect.
(1) 12 parts of spinetoram as the present compound 1, 35 parts of a carrier on which a polyoxyethylene alkyl ether sulfate ammonium salt and white carbon in a weight ratio of 1:1 were adsorbed, and 53 parts of water were mixed, and finely milled by a wet milling method to obtain a spinetoram formulation (hereinafter, referred to as the formulation A).
(2) A flowable formulation containing 10 parts of pyridalyl, which is the present compound 2, as the active ingredient (trade name: PLEO flowable, manufactured by Sumitomo Chemical Co., Ltd.) (hereinafter, referred to as the formulation B) was used.
(3) The formulation A was diluted with water to prepare a water dilution having an active ingredient concentration shown in Table 1. To the water dilution, 1/5,000 volume of a spreading agent (Sindain, manufactured by Sumitomo Chemical Takeda Agro Co., Ltd.) was added to prepare a test solution containing the present compound 1. The formulation B was diluted with water to prepare a water dilution having an active ingredient concentration shown in Table 1. To the water dilution, 1/5,000 volume of a spreading agent (Sindain, manufactured by Sumitomo Chemical Takeda Agro Co., Ltd.) was added to prepare a test solution containing the present compound 2.
A water dilution of the formulation A and a water dilution of the formulation B were mixed so that the respective active ingredients could reach concentrations shown in Table 1. To the mixture, 1/5,000 volume of a spreading agent (Sindain, manufactured by Sumitomo Chemical Takeda Agro Co., Ltd.) was added to prepare a test solution containing the present compound 1 and the present compound 2.
(4) A cabbage was planted in a pot and grown until the fourth leaf stage. The leaves of the cabbage were cut off one by one, and then immersed in the above-described test solution for 60 seconds. After air drying, the cabbage leaves were each placed in a cup with a filter paper spread on the bottom. Ten fourth-instar larvae of Spodoptera litura were released into each cup. […] An insecticidal rate was calculated and corrected according to the following formula.
Insecticidal rate (%)=100×(Mt−Mc)/(100−Mc)
(§3) Mt: Worm death rate (%) in a section treated with a test compound
(§4) Mc: Worm death rate (%) in a section not treated with a test compound

Spodoptera litura [2] = test: Test Example 2: cabbage leaf immersion test, insecticidal rate on fourth-instar larvae; format: in vivo; settings: after 2 days
Experimental: as §1, §2
(1) The formulation A was diluted with water to prepare a water dilution having an active ingredient concentration shown in Table 2. To the water dilution, 1/5,000 volume of a spreading agent (Sindain, manufactured by Sumitomo Chemical Takeda Agro Co., Ltd.) was added to prepare a test solution containing the present compound 1.
The formulation B was diluted with water to prepare a water dilution having an active ingredient concentration shown in Table 2. To the water dilution, 1/5,000 volume of a spreading agent (Sindain, manufactured by Sumitomo Chemical Takeda Agro Co., Ltd.) was added to prepare a test solution containing the present compound 2.
A water dilution of the formulation A and a water dilution of the formulation B were mixed so that the respective active ingredients could reach concentrations shown in Table 2. To the mixture, 1/5,000 volume of a spreading agent (Sindain, manufactured by Sumitomo Chemical Takeda Agro Co., Ltd.) was added to prepare a test solution containing the present compound 1 and the present compound 2.
(2) A cabbage was planted in a pot and grown until the fourth leaf stage. The leaves of the cabbage were cut off one by one, and then immersed in the above-described test solution for 60 seconds. After air drying, the cabbage leaves were each placed in a cup with a filter paper spread on the bottom. Ten fourth-instar larvae of Spodoptera litura were released into each cup. […] An insecticidal rate was calculated and corrected according to the following formula. Insecticidal rate (%)=100×(Mt−Mc)/(100−Mc)
as §3, §4

## FC(F)(F)c1ccc(OCCCOc2c(Cl)cc(OCC=C(Cl)Cl)cc2Cl)nc1 [Pyridalyl (present compound 2), 2,6-dichloro-4-(3,3-dichloroallyloxy)phenyl 3-[5-(trifluoromethyl)-2-pyridyloxy]propyl ether]
Spodoptera litura [1]; 2.5 ppm single ingredient
  Theoretical value of insecticidal rate (%): 0%
  Found value of insecticidal rate (%): 0%
Spodoptera litura [2]; 0.25 ppm single ingredient
  Found value of insecticidal rate (%): 0%
Spodoptera litura [2]; 2.5 ppm single ingredient
  Found value of insecticidal rate (%): 16.7%

## spinetoram [Spinetoram (present compound 1)]
Spodoptera litura [1]; 0.73 ppm single ingredient
  Theoretical value of insecticidal rate (%): 0%
  Found value of insecticidal rate (%): 0%
Spodoptera litura [1]; 2.9 ppm single ingredient
  Theoretical value of insecticidal rate (%): 0%
  Found value of insecticidal rate (%): 0%
Spodoptera litura [2]; 0.25 ppm single ingredient
  Found value of insecticidal rate (%): 0%
Spodoptera litura [2]; 2.5 ppm single ingredient
  Found value of insecticidal rate (%): 0%
